# In patent EP3964196A1, “USE OF CHL[…] CETYLPYRIDINIUM CHLORIDE AS ANTIVIRAL AGENTS” (Ferton Holding S.A., priority 2020, dated 2022):
# Test system: SARS-CoV-2
# Assay: Virucidal efficacy: 30sec incubation of SARS-CoV-2 with mouth rinsing solution, then standard plaque assay on Vero E6 cells
# Format: cell-based, Severe acute respiratory syndrome coronavirus 2
# Conditions: 1x10^6 pfu SARS-CoV-2 incubated with solution (2-fold diluted) for 30sec at 37°C; Dilution 4 analyzed on Vero E6; compared to negative control
# Method: A mouth rinsing solution according to the invention (see example 1 below) and some of their individual active components were tested regarding their virucidal efficacy against the novel coronavirus SARS-CoV-2, in vitro. To evaluate if this procedure is sufficient to successfully inactivate SARS-CoV-2, in the following study 1x10^6 infectious SARS-CoV-2 particles were incubated with the solutions (dilution factor: 2) for 30sec. After a serial dilution the samples were submitted to a standard plaque assay to check for the presence of infectious virus particles post incubation with the different solutions.
# Test solutions: • Example 1 (0.1% Chlorhexidine (CHX), 0.05% CPC, PEG-40 hydrogenated castor oil), according to the invention Comparative examples: • 0.1% CHX plus 0.05% CPC • 0.05% CPC • 0.1% CHX • 1.5% H2O2 • 0.5% H2O2 […]
# The samples were mixed briefly by vortexing and incubated at 37°C for 30sec. […] Dilution 4 of each sample was analyzed in technical duplicates in a plaque assay. […]
# The virucidal activity of example 1 and some of their individual components were investigated against the novel corona virus SARS-CoV-2 by a 30sec incubation of 1x10^6 pfu SARS-CoV-2 with the test substances, followed by a standard plaque assay. […] Medium", positive control, in column 3, each analyzed in technical duplicates.
row,SMILES,infectious SARS-CoV-2 particles / number of plaques in the plaque assay
1,"[H]/N=C(\N/C(=N/[H])NCCCCCCNC(=N)NC(=N)Nc1ccc(Cl)cc1)Nc1ccc(Cl)cc1 [0.1% CHX, Chlorhexidine]",no reduction compared to the negative control
2,"OO [1.5% H2O2, Hydrogen peroxide]",no reduction compared to the negative control
